Paper PMC10269165 (Antimicrobial Agents and Chemotherapy, 2023)
Like-named read-outs stand apart in the source and are kept apart here.

What was measured:
AcPMT1 = AcPMT1 (Ancylostoma duodenale, UniProt A0A0C2DEB6); experiment: biochemical; type: biochemical; details: for Selectivity index (SI) AcPMT1: IC50^Cytotoxicity/IC50^Enzyme
Protocol: (§1) The chemical compounds were obtained from the National Cancer Institute/Developmental Therapeutics Program Open Chemical Repository. […] Compounds were individually reconstituted in molecular biology grade dimethyl sulfoxide (DMSO) from Sigma-Aldrich to a stock concentration of 10 mM and stored at −20°C until use. Initial screening was conducted using recombinant HcPMT1 protein as enzyme in the methyltransferase assay, with test compounds at a final concentration of 40 μM. […] To the positive reaction mixture, instead of test compound, an equivalent volume of DMSO was added. In the negative-control reaction mixture, instead of HcPMT1 and test compound, equivalent volumes of 1× transferase buffer and DMSO, respectively, were added. Detection buffer (100 μL) containing fluorescence substrate was added into each reaction mixture. The reactions were prepared in triplicate wells in 96-well plates. The plates were covered in aluminum foil and incubated at room temperature with agitation for 30 min, followed by reading the fluorescence at 380EX/520EM. The mean percent inhibition (MPI) of the test compound on enzymatic activity was calculated using the following formula: MPI = ΔRFUpositive control − ΔRFUcompounds/ΔRFUpositive control × 100, where the positive control is a reaction without compound but with recombinant PMT protein and a volume of DMSO equivalent to that of compound used in test reactions; the negative control is the reaction without protein and compounds, but with volumes of dialysis buffer and DMSO equivalent to protein and compound added in the test reaction mixtures, respectively; ΔRFUpositive control represents the absolute relative fluorescence units (RFU) for the positive control, which equals RFUpositive control – RFUnegative control; and ΔRFUcompounds represents the absolute RFU value for the sample with the compounds, which equals RFUcompounds – RFUnegative control.
(§2) The enzymatic assay was set up as described above, with the respective PMT protein as enzyme.

DvPMT1 = DvPMT1 (Dictyocaulus viviparus, UniProt A0A0D8Y714); experiment: biochemical; type: biochemical; details: for Selectivity index (SI) DvPMT1: IC50^Cytotoxicity/IC50^Enzyme;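 for Selectivity index (SI) DvPMT1: cytotoxicity IC50 measured in HCT-8 cells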
DvPMT1, sequence (A0A0D8Y714 entry or part of it): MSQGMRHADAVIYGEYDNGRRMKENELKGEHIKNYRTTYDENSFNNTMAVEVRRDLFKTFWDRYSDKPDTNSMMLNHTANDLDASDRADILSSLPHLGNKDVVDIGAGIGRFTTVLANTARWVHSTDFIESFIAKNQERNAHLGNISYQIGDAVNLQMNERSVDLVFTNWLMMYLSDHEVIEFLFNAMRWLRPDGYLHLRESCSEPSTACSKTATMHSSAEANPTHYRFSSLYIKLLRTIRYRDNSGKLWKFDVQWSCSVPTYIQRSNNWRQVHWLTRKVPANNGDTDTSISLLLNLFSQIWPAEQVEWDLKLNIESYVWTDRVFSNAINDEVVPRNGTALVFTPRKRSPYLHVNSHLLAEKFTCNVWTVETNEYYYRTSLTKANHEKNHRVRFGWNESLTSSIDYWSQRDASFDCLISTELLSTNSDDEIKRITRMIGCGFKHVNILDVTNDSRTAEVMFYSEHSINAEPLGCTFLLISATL
Protocol: as §1, §2

HcPMT1 = HcPMT1 (Haemonchus contortus, UniProt U5HK46); experiment: biochemical; type: biochemical; details: for Selectivity index (SI) HcPMT1: IC50^Cytotoxicity/IC50^Enzyme;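 for Selectivity index (SI) HcPMT1: cytotoxicity IC50 measured in HCT-8 cells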
HcPMT1, sequence (U5HK46 entry or part of it): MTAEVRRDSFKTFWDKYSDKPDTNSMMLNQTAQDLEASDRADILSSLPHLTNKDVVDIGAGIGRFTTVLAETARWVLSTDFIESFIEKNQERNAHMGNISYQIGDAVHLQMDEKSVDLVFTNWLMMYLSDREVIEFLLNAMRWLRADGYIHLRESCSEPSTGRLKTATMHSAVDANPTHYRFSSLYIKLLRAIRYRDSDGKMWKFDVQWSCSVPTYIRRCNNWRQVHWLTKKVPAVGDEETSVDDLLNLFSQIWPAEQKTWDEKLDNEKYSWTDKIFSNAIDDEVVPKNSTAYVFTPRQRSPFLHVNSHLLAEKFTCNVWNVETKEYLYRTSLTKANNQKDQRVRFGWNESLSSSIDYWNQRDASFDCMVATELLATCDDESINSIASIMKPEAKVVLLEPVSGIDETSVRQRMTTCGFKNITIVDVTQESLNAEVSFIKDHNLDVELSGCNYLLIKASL
Protocol: as §1, §2

OdPMT = OdPMT (Oesophagostomum dentatum, UniProt A0A0B1TAL6); experiment: biochemical; type: biochemical; details: for Selectivity index (SI) OdPMT: IC50^Cytotoxicity/IC50^Enzyme;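 for Selectivity index (SI) OdPMT: cytotoxicity IC50 measured in HCT-8 cells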
OdPMT, sequence (A0A0B1TAL6 entry or part of it): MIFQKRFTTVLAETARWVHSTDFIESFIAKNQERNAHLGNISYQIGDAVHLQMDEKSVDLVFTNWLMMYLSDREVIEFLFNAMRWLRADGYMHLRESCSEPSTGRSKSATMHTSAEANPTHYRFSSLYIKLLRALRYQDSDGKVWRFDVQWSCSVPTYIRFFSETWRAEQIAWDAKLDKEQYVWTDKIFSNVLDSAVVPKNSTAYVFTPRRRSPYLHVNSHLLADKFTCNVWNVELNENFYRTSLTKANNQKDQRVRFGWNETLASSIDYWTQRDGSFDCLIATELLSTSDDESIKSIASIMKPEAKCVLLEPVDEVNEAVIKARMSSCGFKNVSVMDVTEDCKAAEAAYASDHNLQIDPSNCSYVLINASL
Protocol: as §1, §2

TcPMT = TcPMT (Toxocara canis, UniProt A0A0B2VTW9); experiment: biochemical; type: biochemical; details: for Selectivity index (SI) TcPMT: IC50^Cytotoxicity/IC50^Enzyme;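 for Selectivity index (SI) TcPMT: cytotoxicity IC50 measured in HCT-8 cells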
TcPMT, sequence (A0A0B2VTW9 entry or part of it): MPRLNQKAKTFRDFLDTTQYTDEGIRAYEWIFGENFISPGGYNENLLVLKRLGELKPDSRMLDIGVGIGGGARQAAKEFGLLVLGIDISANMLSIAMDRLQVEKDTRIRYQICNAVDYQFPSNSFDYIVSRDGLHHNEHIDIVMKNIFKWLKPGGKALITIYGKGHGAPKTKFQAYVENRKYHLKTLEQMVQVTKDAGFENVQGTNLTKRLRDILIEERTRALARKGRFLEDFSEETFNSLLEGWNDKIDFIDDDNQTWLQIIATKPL
Protocol: as §1, §2

AsPMT = AsPMT (Ascaris suum, UniProt F1L4B9); type: biochemical; details: for Selectivity index (SI) AsPMT: IC50^Cytotoxicity/IC50^Enzyme; for IC50: read-out: Mean IC50 ± SEM, Enzyme AsPMT;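 for Selectivity index (SI) AsPMT: cytotoxicity IC50 measured in HCT-8 cells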
AsPMT, sequence (F1L4B9 entry or part of it): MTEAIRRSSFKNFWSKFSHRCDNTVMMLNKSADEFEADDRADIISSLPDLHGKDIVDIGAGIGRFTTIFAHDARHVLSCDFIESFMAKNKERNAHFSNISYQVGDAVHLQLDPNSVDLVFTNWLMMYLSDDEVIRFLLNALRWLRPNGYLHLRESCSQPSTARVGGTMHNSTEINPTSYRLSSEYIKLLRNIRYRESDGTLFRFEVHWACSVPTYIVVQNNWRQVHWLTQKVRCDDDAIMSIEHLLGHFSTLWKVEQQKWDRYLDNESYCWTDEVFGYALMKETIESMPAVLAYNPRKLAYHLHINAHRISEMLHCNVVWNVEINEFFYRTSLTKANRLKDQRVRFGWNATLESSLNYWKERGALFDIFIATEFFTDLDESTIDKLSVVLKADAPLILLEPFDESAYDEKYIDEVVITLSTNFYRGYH
Protocol: as §1, §2

[1] = test system: AcPMT1+2-complemented pem1Δ/pem2Δ S. cerevisiae; experiment: Growth inhibition of complemented yeast; type: cell-based, Saccharomyces cerevisiae; details: read-out: Mean growth inhibition EC50 ± SEM on complemented yeast, AcPMT1+2
Protocol: (§3) To determine the effect of PMT inhibitors on the growth of PMT- and LacZ-complemented pem1Δpem2Δ S. cerevisiae, the yeast cells were first starved of choline as described above, and the cells were diluted to an OD600 of ~0.6. The PMT-complemented yeast cells were cultured in SG medium (3.4g/L yeast nitrogen base without amino acids, 2% galactose, 30 mg/L histidine, 100 mg/L leucine, 100 mg/L adenine, and 50 mg/L tryptophan) supplemented with 1 mM ethanolamine hydrochloride, while the LacZ-complemented yeast cells were cultured in SG medium supplemented with 1 mM choline chloride. Compounds that depicted cross-inhibitory activity against PMT proteins in vitro were added at various concentrations to the cultures. As a negative control, DMSO (at a final concentration not exceeding 2% [vol/vol]) was added to yeast cultures designated control cultures. The cultures were incubated at 30°C with shaking at 275 rpm for 4 days. On a daily basis during the course of culture, 200-μL portions of culture aliquots were taken, and their OD600s were measured using a microplate reader. In preliminary work, we had observed that the growth of PMT- and LacZ-complemented pem1Δpem2Δ S. cerevisiae plateaued at 3 to 4 days of culture. Therefore, to determine the inhibitory effect of nematode PMT inhibitors on the growth of PMT- and LacZ-complemented pem1Δpem2Δ S. cerevisiae, measurements taken on day 3 were used. The results were presented as percentage of growth rate using the following formula: PGR = growth rate (plus inhibitor)/growth rate (minus inhibitor) × 100 where the percent growth rate (PGR) is the growth rate of inhibitor-treated PMT- or LacZ- complemented Pem1Δpem2Δ S. cerevisiae, considering the growth rate of untreated PMT- or LacZ- complemented Pem1Δpem2Δ S. cerevisiae is 100%; the growth rate = ΔA600^Day 3/ΔA600^Day 0; ΔA600^Day 0 is the absolute value of A600 of PMT- or LacZ- complemented pem1Δ/pem2Δ S. cerevisiae at day 0, which equals the A600 of the culture minus the A600 of the growth medium only; ΔA600^Day 3 is the absolute value of the A600 of PMT- or LacZ complemented pem1Δ/pem2Δ S. cerevisiae at day 3, which equals the A600 of the culture at day 3 minus the A600 of growth medium only; the growth rate (plus inhibitor) is the growth rate of PMT- or -LacZ complemented pem1Δpem2Δ S. cerevisiae in the presence of test compound; and the growth rate (minus inhibitor) is the growth rate of the PMT- or LacZ complemented pem1Δ/pem2Δ S. cerevisiae in the absence of test compound, but with a volume of DMSO equal to that of compound added in the treated culture. The dose-response curves were generated with GraphPad Prism software and IC50 concentrations of the compounds in PMT- and LacZ-complemented yeast cells derived.

[2] = test system: AsPMT-complemented pem1Δ/pem2Δ S. cerevisiae; experiment: Growth inhibition of complemented yeast; type: cell-based, Saccharomyces cerevisiae; details: medium with ethanolamine, no choline, day 3, read-out: Mean growth inhibition EC50 ± SEM on complemented yeast, AsPMT
Protocol: as §3

[3] = test system: PMT-complemented mutant yeast; experiment: Growth inhibition of complemented yeast (statement on PMT-complemented strains together); type: cell-based, Saccharomyces cerevisiae; details: various concentrations
Protocol: as §3

[4] = test system: H. contortus, susceptible (TxPh-2011-S) and MDR (UGA MDR 2020) isolates; experiment: Larval development assay (LDA); type: cell-based, Haemonchus contortus; details: for Hill slope: LDA dose-response curve; for anthelmintic activity in LDA: drug-susceptible and MDR isolates
[5] = test system: MDR isolate of H. contortus, exsheathed L3 larvae; experiment: Larval motility assay (LMA), Worminator; type: cell-based, Haemonchus contortus
[6] = read-out: Mean IC50 ± SEM, Enzyme AcPMT1
[7] = read-out: Mean IC50 ± SEM, Enzyme DvPMT1
[8] = read-out: Mean IC50 ± SEM, Enzyme HcPMT1
[9] = read-out: Mean IC50 ± SEM, Enzyme OdPMT
[10] = read-out: Mean IC50 ± SEM, Enzyme TcPMT
[11] = medium with ethanolamine, no choline, day 3
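Throughout, for Selectivity index (SI) AcPMT1: cytotoxicity IC50 measured in HCT-8 cells.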

AcPMT1, sequence (A0A0C2DEB6 entry or part of it): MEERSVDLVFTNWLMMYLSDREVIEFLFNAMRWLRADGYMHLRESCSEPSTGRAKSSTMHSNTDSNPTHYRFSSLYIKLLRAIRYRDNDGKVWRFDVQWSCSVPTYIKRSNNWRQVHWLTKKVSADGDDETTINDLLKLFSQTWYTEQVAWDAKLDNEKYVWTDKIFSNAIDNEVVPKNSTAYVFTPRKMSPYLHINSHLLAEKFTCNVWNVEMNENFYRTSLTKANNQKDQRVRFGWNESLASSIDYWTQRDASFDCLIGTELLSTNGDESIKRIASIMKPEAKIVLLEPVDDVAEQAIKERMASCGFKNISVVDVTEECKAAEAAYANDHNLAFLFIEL

SMILES	Selectivity index (SI) AcPMT1 (AcPMT1)	Selectivity index (SI) DvPMT1 (DvPMT1)	Selectivity index (SI) HcPMT1 (HcPMT1)	Selectivity index (SI) OdPMT (OdPMT)	Selectivity index (SI) TcPMT (TcPMT)	Selectivity index (SI) AsPMT (AsPMT)	IC50 (AsPMT) [µM]	EC50 ([1]; Saccharomyces cerevisiae, 72 h) [µM]	EC50 ([2]; Saccharomyces cerevisiae, 72 h) [µM]	effect on the growth of PMT-complemented mutant yeast [3]	fold higher potency than NSC145612 ([4]; LDA IC50)	Hill slope [4]	anthelmintic activity in LDA [4]	IC50 (AcPMT1; [6]) [µM]	IC50 (DvPMT1; [7]) [µM]	IC50 (HcPMT1; [8]) [µM]	IC50 (OdPMT; [9]) [µM]	IC50 (TcPMT; [10]) [µM]	EC50 [1, 11] [µM]	EC50 [2] [µM]	other results
CO[C@@]12[C@H](COC(N)=O)C3=C(C(=O)C(C)=C(N)C3=O)N1C[C@H]1[C@@H]2N1C (some centres unmarked) [NSC56410]	2.75	0.10	3.52	0.90	2.23	3.24	58.1 ± 12.9	40.3 ± 9.42	50.7 ± 3.87	concentration-dependent inhibitory effect	~39 fold	0.45	activity in the lower micromolar range	–	–	–	–	–	–	–	IC50 (AcPMT1): 68.4 ± 5.39 µM; IC50 (DvPMT1): 1920 µM; IC50 (HcPMT1): 53.5 ± 5.85 µM; IC50 (OdPMT): 210 ± 73.5 µM; IC50 (TcPMT): 84.5 ± 6.53 µM; IC50 ([4]; Haemonchus contortus, read-out: Anthelmintic IC50 by LDA (95% confidence interval)): 0.8 µM; fold higher potency than NSC133100 ([4]; LDA IC50): ~ 5 fold; fold higher potency than NSC177383 ([4]; LDA IC50): ~6 fold
O=c1c(O)cccc2cc(O)c(O)c(O)c12 [NSC35676, purpurogallin]	49.02	13.44	27.96	33.80	12.35	45.59	12.4 ± 1.1	17.6 ± 3.72	15.1 ± 0.7	concentration-dependent inhibitory effect	–	–	–	11.5 ± 0.94	42.1 ± 3.16	20.2 ± 1.64	16.8 ± 0.41	45.9 ± 2.9	–	–	–
COc1ccc(-c2c(C)c(C(=O)O)nc(-c3ccc4c(O)c(OC)c5c(c4n3)=NC(C)(C)N=5)c2N)c(O)c1OC [NSC62709]	22.31	10.24	10.86	9.39	10.83	6.75	44.3 ± 1.35	–	–	concentration-dependent inhibitory effect	–	–	–	13.4 ± 1.3	29.2 ± 2.13	27.5 ± 1.97	31.8 ± 1.8	27.6 ± 1.26	26.9 ± 7.63	15.4 ± 2.13	–
COc1cc(C)c2c(c1C=O)Oc1c(c(C)c(O)c3c1C(O)OC3=O)OC2=O (centres unmarked) [NSC87511]	2.61	0.34	1.10	0.35	0.35	0.97	177 ± 15.6	–	–	concentration-dependent inhibitory effect	–	–	–	65.8 ± 9.78	504 ± 188	157 ± 26	488 ± 162	496 ± 184	26.4 ± 3.45	25.9 ± 1.24	–
CO[C@H]1/C=C/O[C@@]2(C)Oc3c(C)c(O)c4c(O)c(cc(O)c4c3C2=O)NC(=O)/C(C)=C\C=C\[C@H](C)[C@H](O)[C@@H](C)[C@@H](O)[C@@H](C)[C@H](OC(C)=O)[C@@H]1C [NSC133100]	3.23	1.15	3.67	1.07	1.03	3.00	34 ± 2.85	–	–	concentration-dependent inhibitory effect	~ 7 fold	0.60	activity in the lower micromolar range	31.5 ± 2.25	88.2 ± 4.14	27.8 ± 1.71	94.7 ± 5.03	99.1 ± 9	35.1 ± 5.01	23.4 ± 1.85	Percent inhibition of larval motility ([5]; 62.5 µM, 1 hour): 13.5%; Percent inhibition of larval motility ([5]; 62.5 µM, 72 hours): -9.5%; Percent inhibition of larval motility ([5]; 62.5 µM, 96 hours): -1.6%; Percent inhibition of larval motility ([5]; 62.5 µM, Initial): -25.7%; Percent inhibition of larval motility ([5]; 250 µM, 4 hours): -5.6%; Percent inhibition of larval motility ([5]; 250 µM, 72 hours): -1.2%
CO[C@@H]1/C=C/O[C@@]2(C)Oc3c(C)c(O)c4c(c3C2=O)C(=N[C@@H]2CC[C@@H](O)O[C@H]2C)C=C(NC(=O)/C(C)=C\C(=O)[C@@H]2C[C@@H]2[C@H](O)[C@@H](C)[C@@H](O)[C@@H](C)[C@H](OC(C)=O)[C@@H]1C)C4=O [NSC177383]	5.76	1.80	3.93	3.20	2.07	3.47	24.6 ± 1.79	–	–	–	~ 7 fold	1.23	activity in the lower micromolar range	14.8 ± 2.06	47.6 ± 7.41	21.7 ± 2.05	26.7 ± 2	41.3 ± 2.8	21.9 ± 7.31	12.3 ± 1.11	Percent inhibition of larval motility ([5]; 62.5 µM, 1 hour): 3.9%; Percent inhibition of larval motility ([5]; 62.5 µM, 72 hours): 19.1%; Percent inhibition of larval motility ([5]; 62.5 µM, 96 hours): 14.7%; Percent inhibition of larval motility ([5]; 62.5 µM, Initial): 16.5%; Percent inhibition of larval motility ([5]; 250 µM, 4 hours): -42.2%; Percent inhibition of larval motility ([5]; 250 µM, 72 hours): 46.1%
